Patent US20250092088A1, “PEPTIDE COMPOUND PRODUCTION METHOD” (CHUBU UNIVERSITY EDUCATIONAL FOUNDATION, priority 2022, published 2025)

Experiment: TLC analysis of H-Ala-O-PG to evaluate polarity reduction by protecting groups
Assay type: physicochemical
Conditions: hexane/ethyl acetate=2/1, L-Ala with terminal carboxyl protected by PG (H-Ala-O-PG)
Text: As protecting groups for the terminal carboxyl groups of amino acid/peptide compounds, the silicon-containing hydrophobic substituents TAG1(Si), TAG2(Si), and TAG3(Si) synthesized in Examples 1 to 3, the conventionally known protecting group tBu group, and the previously mentioned TAGa group (alkoxybenzyl ester group) represented by the following formula, which is described in Non-Patent Literature 6 (Org. Process Res. Dev. 2019, Vol. 23, p. 2576-2581), were used to protect the terminal carboxyl of an amino acid (L-Ala), and their effects on polarity reduction were evaluated.

Q: Which Rf value does the source give for `C[C@H](N)C(=O)OC(C)(C)C` [tBu, reference compound] here?
A: The Rf value was 0.07.
